The supplement of paper PMC10307832

How the values were obtained:
Test in all cases: relative viability (nuclei count vs DMSO), 5 days (fraction); higher = more cells survive
Lestaurtinib = compound: C[C@]12O[C@H](C[C@]1(O)CO)n1c3ccccc3c3c4c(c5c6ccccc6n2c5c31)CNC4=O [Lestaurtinib]
Summary of the method: (§1)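 Five library-drug doses, separated by factors of √10, were pinned into 1536-well plates holding lung cancer cell lines after an overnight stay at 37 °C. Cells were fixed, permeabilised and Hoechst-stained in one step after 5 days without medium change, then imaged at 4×. Viability compares treated-well with vehicle-well nuclei, counted in MetaXpress, as a median across plates. Passing plates had control CV below 25% and at least one doubling.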

[1] = compound: C1/C(=C\C2=CC=CS2)/C(=O)/C(=C/C3=CC=CS3)/C1
Summary of the method: as §1

TPCA-1 = compound: C1=CC(=CC=C1C2=CC(=C(S2)NC(=O)N)C(=O)N)F [TPCA-1]
Summary of the method: as §1

| Cell Line | relative viability (Lestaurtinib; 0.005 µM) | relative viability (Lestaurtinib; 0.01581 µM) | relative viability (Lestaurtinib; 0.05 µM) | relative viability (Lestaurtinib; 0.1581 µM) | relative viability (Lestaurtinib; 0.5 µM) | relative viability ([1]; 0.2 µM) | relative viability ([1]; 0.6325 µM) | relative viability ([1]; 2 µM) | relative viability ([1]; 6.325 µM) | relative viability ([1]; 20 µM) | relative viability (TPCA-1; 0.04 µM) | relative viability (TPCA-1; 0.1265 µM) | relative viability (TPCA-1; 0.4 µM) | relative viability (TPCA-1; 1.265 µM) | relative viability (TPCA-1; 4 µM) |
| --- | --- | --- | --- | --- | --- | --- | --- | --- | --- | --- | --- | --- | --- | --- | --- |
| NCI-H1395 | 0.886 | 1.04 | 0.759 | 0.759 | 0.462 | 0.912 | 0.876 | 1.11 | 0.833 | 0.945 | 1.01 | 0.916 | 1.02 | 0.811 | 0.703 |
| NCI-H1437 | 1.03 | 1.15 | 0.914 | 0.89 | 0.835 | 0.984 | 0.965 | 0.949 | 0.82 | 0.974 | 1.01 | 1.01 | 1.03 | 0.971 | 0.887 |
| NCI-H1563 | 1.06 | 1.02 | 0.913 | 0.972 | 0.72 | 1.01 | 0.876 | 1.03 | 0.936 | 0.998 | 0.886 | 0.964 | 0.971 | 0.941 | 0.956 |
| NCI-H1623 | 0.978 | 0.962 | 0.931 | 0.884 | 0.813 | 0.977 | 0.865 | 1.1 | 0.903 | 0.911 | 1.13 | 0.879 | 0.962 | 1.01 | 0.763 |
| NCI-H1648 | 0.688 | 0.993 | 0.691 | 1.17 | 0.879 | 0.934 | 0.875 | 0.876 | 0.728 | 0.739 | 1.1 | 0.788 | 1.03 | 0.824 | 0.993 |
| NCI-H1650 | 0.976 | 1.09 | 0.961 | 1.19 | 0.415 | 0.874 | 0.908 | 1.01 | 0.867 | 0.875 | 1.03 | 0.851 | 1.06 | 0.955 | 0.852 |
| NCI-H1651 | 0.989 | 1.05 | 0.81 | 1.07 | 0.69 | 0.978 | 1.07 | 0.985 | 0.861 | 0.949 | 1.05 | 0.921 | 0.955 | 1.01 | 0.877 |
| NCI-H1666 | 1.11 | 1.13 | 1.31 | 0.986 | 0.894 | 1.02 | 1.02 | 0.922 | 0.919 | 0.955 | 1.09 | 0.972 | 0.982 | 0.973 | 0.904 |
| NCI-H1703 | 0.945 | 0.749 | 0.591 | 0.272 | 0.151 | 1.19 | 1.2 | 1.01 | 0.788 | 0.958 | 1.24 | 0.728 | 0.911 | 0.647 | 0.832 |
| NCI-H1734 | 0.993 | 0.956 | 0.66 | 0.563 | 0.262 | 1.02 | 1.01 | 1.03 | 0.891 | 0.984 | 1.17 | 0.848 | 1.1 | 1.03 | 0.553 |
| NCI-H1755 | 1.02 | 1.05 | 0.965 | 0.736 | 0.351 | 1.02 | 0.987 | 1.04 | 0.807 | 0.999 | 0.951 | 0.941 | 1.01 | 0.922 | 0.765 |
| NCI-H1792 | 0.744 | 1.36 | 0.504 | 0.63 | 0.433 | 1.03 | 1.02 | 1.09 | 0.854 | 0.955 | 1.22 | 0.894 | 0.914 | 0.568 | 0.42 |
| NCI-H1793 | 0.949 | 0.986 | 0.657 | 0.828 | 0.723 | 0.962 | 0.953 | 1.1 | 0.856 | 0.87 | 1.1 | 0.718 | 1.08 | 0.954 | 0.279 |
| NCI-H1915 | 1.01 | 1.05 | 0.927 | 0.642 | 0.344 | 1.02 | 1.04 | 0.99 | 0.93 | 0.97 | 1.1 | 0.984 | 1.05 | 0.896 | 0.608 |
| NCI-H1944 | 0.888 | 0.972 | 0.968 | 0.655 | 0.396 | 1.04 | 0.922 | 0.977 | 0.858 | 0.917 | 1.15 | 0.88 | 1.07 | 0.998 | 0.715 |
| NCI-H1975 | 1.04 | 1.03 | 0.829 | 0.774 | 0.649 | 0.99 | 0.891 | 0.886 | 0.838 | 0.969 | 0.974 | 0.887 | 0.932 | 0.87 | 0.576 |
| NCI-H1993 | 1.02 | 0.949 | 0.824 | 0.709 | 0.567 | 1.04 | 0.898 | 1.05 | 0.786 | 0.861 | 0.985 | 0.805 | 0.94 | 1.06 | 0.722 |
